ChEMBL document CHEMBL5376006, “Discovery of a Hidden Pocket beneath the NES Groove by Novel Noncovalent CRM1 Inhibitors” (J Med Chem, 2023)
The source made the active and inactive calls. The calls are words filed in the database; no cut-off is given here.

How the values were obtained:
[1] = target: T1, Exportin-1 (Homo sapiens, UniProt O14980); assay: Binding affinity to CRM1 (unknown origin) assessed as inhibition of CRM1 binding to IAF-conjugated NES PKI by measuring dissociation constant in the presence of RanGTP by competitive MST analysis
[2] = tested on: HeLa; assay: Antiproliferative activity against human HeLa cells assessed as inhibition of cell growth at 20 uM incubated for 72 hrs by SRB assay; assay type: functional, cell-based
[3] = target: T1, Exportin-1; assay: Binding affinity to CRM1 in human HeLa assessed as thermal stabilization at 20 uM incubated at 60 to 84 degreeC for 3 mins by CETSA based Western blot analysis; assay type: cell-based
[4] = target: T1, Exportin-1; assay: Inhibition of CRM1 cargo nuclear export in human MCF7 cells at 50 uM incubated for 4 hrs by confocal microscopic analysis; assay type: cell-based
[5] = target: T1, Exportin-1; assay: Inhibition of CRM1 cargo nuclear export in human A549 cells at 50 uM incubated for 4 hrs by confocal microscopic analysis; assay type: cell-based
[6] = target: T1, Exportin-1; assay: Inhibition of CRM1 cargo nuclear export in digitonin-permeabilized human HeLa cells at 50 uM incubated for 4 hrs by confocal microscopic analysis; assay type: cell-based
[7] = tested on: Exportin-1 (Homo sapiens), O14980 [C528S]; assay: Inhibition of human CRM1 C528S mutant nuclear export transfected in human MCF7 cells at 50 uM incubated for 4 hrs by confocal microscopic analysis; assay type: cell-based
[8] = Solubility of the compound in water; assay type: physicochemical
[9] = tested on: HeLa; assay: Antiproliferative activity against human HeLa cells assessed as inhibition of cell growth incubated for 72 hrs by SRB assay; assay type: functional, cell-based
[10] = Cytotoxicity against HEK293T cells assessed as inhibition of cell growth incubated for 72 hrs by SRB assay; assay type: toxicity, cell-based, HEK-293T; details: human
[11] = Toxicity in mouse assessed as body weight loss at 100 mg/kg, ip administered for 2 weeks; assay type: organism-based; details: in vivo, 336 h
[12] = Toxicity in mouse at 100 mg/kg, ip administered for 2 weeks; assay type: organism-based; details: in vivo, 336 h
[13] = tested on: A549; assay: Inhibition of colony formation in human A549 cells at 20 uM incubated for 48 hrs by crystal violet staining based analysis; assay type: functional, cell-based
[14] = tested on: A549; assay: Inhibition of colony formation in human A549 cells at 40 uM incubated for 48 hrs by crystal violet staining based analysis relative to control; assay type: functional
[15] = tested on: A549; assay: Induction of apoptosis in human A549 cells at 50 uM incubated for 18 hrs by Annexin V-FITC/PI staining based flow cytometric analysis; assay type: functional, cell-based
[16] = tested on: A549; assay: Induction of apoptosis in human A549 cells assessed as activation of phosphorylated JNK at 50 uM incubated for 18 hrs by Western blot analysis; assay type: functional, cell-based
[17] = tested on: A549; assay: Induction of apoptosis in human A549 cells assessed as caspase-3 cleavage at 50 uM incubated for 18 hrs by Western blot analysis; assay type: functional, cell-based
[18] = tested on: A549; assay: Induction of apoptosis in human A549 cells assessed as PARP-1 cleavage at 50 uM incubated for 18 hrs by Western blot analysis; assay type: functional, cell-based
[19] = tested on: PANC-1; assay: Antiproliferative activity against human PANC-1 cells assessed as inhibition of cell growth at 20 uM incubated for 72 hrs by SRB assay; assay type: functional, cell-based
[20] = tested on: Ishikawa; assay: Antiproliferative activity against human Ishikawa cells assessed as inhibition of cell growth at 20 uM incubated for 72 hrs by SRB assay; assay type: functional, cell-based
[21] = tested on: HuCCT-1; assay: Antiproliferative activity against human HuCCT-1 cells assessed as inhibition of cell growth at 20 uM incubated for 72 hrs by SRB assay; assay type: functional, cell-based
[22] = tested on: SW480; assay: Antiproliferative activity against human SW480 cells assessed as inhibition of cell growth at 20 uM incubated for 72 hrs by SRB assay; assay type: functional, cell-based
[23] = tested on: A2780; assay: Antiproliferative activity against human A2780 cells assessed as inhibition of cell growth at 20 uM incubated for 72 hrs by SRB assay; assay type: functional, cell-based
[24] = tested on: OVCAR-8; assay: Antiproliferative activity against human OVCAR-8 cells assessed as inhibition of cell growth at 20 uM incubated for 72 hrs by SRB assay; assay type: functional, cell-based
[25] = tested on: MDA-MB-453; assay: Antiproliferative activity against human MDA-MB-453 cells assessed as inhibition of cell growth at 20 uM incubated for 72 hrs by SRB assay; assay type: functional, cell-based
[26] = tested on: HepG2; assay: Antiproliferative activity against human HepG2 cells assessed as inhibition of cell growth at 20 uM incubated for 72 hrs by SRB assay; assay type: functional, cell-based
[27] = tested on: A549; assay: Antiproliferative activity against human A549 cells assessed as inhibition of cell growth at 20 uM incubated for 72 hrs by SRB assay; assay type: functional, cell-based
[28] = tested on: MCF7; assay: Antiproliferative activity against human MCF7 cells assessed as inhibition of cell growth at 20 uM incubated for 72 hrs by SRB assay; assay type: functional, cell-based
[29] = target: T1, Exportin-1; assay: Non-covalent inhibition of CRM1 (unknown origin) binding to GST-tagged NES PKI at 20 uM incubated for 2 hrs in presence of DTT by Coomassie brilliant blue staining based pull-down assay
[30] = tested on: SiHa; assay: Antiproliferative activity against human SiHa cells assessed as inhibition of cell growth incubated for 1 hrs by CellTiter Glo assay; assay type: functional, cell-based
[31] = tested on: SiHa; assay: Antiproliferative activity against human SiHa cells assessed as inhibition of cell growth incubated for 72 hrs by CellTiter Glo assay; assay type: functional, cell-based
[32] = tested on: HCT-116; assay: Antiproliferative activity against human HCT-116 cells assessed as inhibition of cell growth incubated for 1 hrs by CellTiter Glo assay; assay type: functional, cell-based; details: HCT-116, 1 h
[33] = tested on: HCT-116; assay: Antiproliferative activity against human HCT-116 cells assessed as inhibition of cell growth incubated for 72 hrs by CellTiter Glo assay; assay type: functional, cell-based; details: HCT-116, 72 h
[34] = tested on: SK-N-SH; assay: Antiproliferative activity against human SK-N-SH cells assessed as inhibition of cell growth incubated for 1 hrs by CellTiter Glo assay; assay type: functional, cell-based
[35] = tested on: SK-N-SH; assay: Antiproliferative activity against human SK-N-SH cells assessed as inhibition of cell growth incubated for 72 hrs by CellTiter Glo assay; assay type: functional, cell-based
[36] = tested on: MOLT-4; assay: Antiproliferative activity against human MOLT-4 cells assessed as inhibition of cell growth incubated for 72 hrs by CellTiter Glo assay; assay type: functional, cell-based; details: MOLT-4, 72 h, pooled result: one value given for 6 cell lines, strains, targets or settings
[37] = target: T1, Exportin-1; assay: Covalent inhibition of CRM1 (unknown origin) binding to GST-tagged NES PKI at 20 uM incubated for 2 hrs in presence of DTT by Coomassie brilliant blue staining based pull-down assay
[38] = target: T1, Exportin-1; assay: Inhibition of CRM1 (unknown origin) binding to GST-tagged NES PKI at 100 uM incubated for 1.5 hrs by Coomassie brilliant blue staining based pull-down assay
[39] = target: T1, Exportin-1; assay: Inhibition of CRM1 (unknown origin) binding to GST-tagged NES PKI assessed as CRM1/NES band ratio incubated for 1.5 hrs by Coomassie brilliant blue staining based pull-down assay (reference value: 1.00); design: concentration or dose not given beside the values
[40] = target: T1, Exportin-1; assay: Inhibition of CRM1 (unknown origin) binding to GST-tagged NES PKI at 100 uM incubated for 2 hrs in presence of DTT by Coomassie brilliant blue staining based pull-down assay
[41] = target: T1, Exportin-1; assay: Inhibition of GFP-fused CRM1 cargo nuclear export in human HeLa cells at 200 uM incubated for 4 hrs by confocal microscopic analysis; assay type: cell-based

Sequence of Exportin-1 (Homo sapiens), O14980 [C528S] (O14980 whole entry C528S): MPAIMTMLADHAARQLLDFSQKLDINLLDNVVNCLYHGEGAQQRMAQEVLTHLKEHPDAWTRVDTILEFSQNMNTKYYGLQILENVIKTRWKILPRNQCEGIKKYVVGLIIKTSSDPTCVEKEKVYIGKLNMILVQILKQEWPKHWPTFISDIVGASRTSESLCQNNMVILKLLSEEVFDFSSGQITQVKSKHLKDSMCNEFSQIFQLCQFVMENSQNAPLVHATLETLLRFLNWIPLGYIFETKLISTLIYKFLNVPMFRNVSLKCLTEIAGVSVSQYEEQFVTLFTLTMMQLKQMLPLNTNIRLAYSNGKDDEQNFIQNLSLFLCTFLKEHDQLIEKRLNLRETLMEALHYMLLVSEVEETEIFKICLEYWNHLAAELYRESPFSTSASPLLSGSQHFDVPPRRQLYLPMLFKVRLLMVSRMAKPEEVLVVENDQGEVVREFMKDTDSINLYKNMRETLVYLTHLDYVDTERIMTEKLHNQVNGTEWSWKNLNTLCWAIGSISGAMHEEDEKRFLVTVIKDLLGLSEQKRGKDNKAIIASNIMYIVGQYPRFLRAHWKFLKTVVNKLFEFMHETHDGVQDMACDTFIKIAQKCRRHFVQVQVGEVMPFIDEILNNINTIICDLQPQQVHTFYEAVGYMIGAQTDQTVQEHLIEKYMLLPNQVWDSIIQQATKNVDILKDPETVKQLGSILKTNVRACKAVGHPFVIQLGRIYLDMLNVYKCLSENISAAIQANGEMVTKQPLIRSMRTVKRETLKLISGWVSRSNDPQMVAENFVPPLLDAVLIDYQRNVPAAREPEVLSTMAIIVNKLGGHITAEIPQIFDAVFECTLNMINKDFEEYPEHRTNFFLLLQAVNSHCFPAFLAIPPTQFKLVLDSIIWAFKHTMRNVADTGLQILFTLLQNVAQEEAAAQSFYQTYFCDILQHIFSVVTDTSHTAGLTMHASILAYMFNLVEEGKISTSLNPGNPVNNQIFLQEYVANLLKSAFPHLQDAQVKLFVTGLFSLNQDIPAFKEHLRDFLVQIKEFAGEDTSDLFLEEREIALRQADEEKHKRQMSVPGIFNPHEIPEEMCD
T1 sequence (O14980 whole entry): as the sequence (O14980 whole entry C528S) above, with S528C counted along it

## O=C(O)c1ccc(N2CCN(c3cc(C(F)(F)F)ccc3C(F)(F)F)CC2)c(NC(=O)c2ccc(Cl)cc2)c1
[1]
  Kd: 3600 nM
[2]
  Activity: Active
[3]
  Activity: Active
[4]
  inhibition: Active
[5]
  inhibition: Active
[6]
  inhibition: Active
[7]
  inhibition: inactive
[8]
  solubility: < 0.14 µg/mL
[9]
  IC50: 14600 nM
[10]
  IC50 at 72 h: 39000 nM
[11]
  Activity: Non-Toxic
[12]
  Activity: Non-Toxic
[13]
  inhibition: Active
[14]
  inhibition at 40 µM: 100%
[15]
  Activity: Active
[16]
  Activity: Active
[17]
  Activity: Active
[18]
  Activity: Active
[19]
  Activity: Active
[20]
  Activity: Active
[21]
  Activity: Active
[22]
  Activity: Active
[23]
  Activity: Active
[24]
  Activity: Active
[25]
  Activity: Active
[26]
  Activity: Active
[27]
  Activity: Active
[28]
  Activity: Active

## CC(C)CCNC/C=C/[S+]([O-])c1cc(C(F)(F)F)cc(C(F)(F)F)c1 (stereo unspecified)
[29]
  inhibition: inactive

## O=C(O)c1ccc(N2CCN(c3cc(C(F)(F)F)ccc3C(F)(F)F)CC2)c(NC(=O)c2ccc(Br)cc2)c1
[1]
  Kd: 1800 nM
[2]
  Activity: Active
[3]
  Activity: Active
[4]
  inhibition: Active
[5]
  inhibition: Active
[6]
  inhibition: Active
[7]
  inhibition: inactive
[8]
  solubility: < 0.14 µg/mL
[9]
  IC50: 15200 nM
[10]
  IC50 at 72 h: 40400 nM
[13]
  inhibition: Active
[14]
  inhibition at 40 µM: 100%
[15]
  Activity: Active
[16]
  Activity: Active
[17]
  Activity: Active
[18]
  Activity: Active
[19]
  Activity: Active
[20]
  Activity: Active
[21]
  Activity: Active
[22]
  Activity: Active
[23]
  Activity: Active
[24]
  Activity: Active
[25]
  Activity: Active
[26]
  Activity: Active
[27]
  Activity: Active
[28]
  Activity: Active

## CCC(=C/[C@H](C)C/C=C/C(C)=C/[C@@H](C)C(=O)[C@@H](C)[C@H](O)[C@@H](C)C/C(C)=C/C(=O)O)/C=C/[C@@H]1OC(=O)C=C[C@@H]1C [LEPTOMYCIN B]
[30]
  IC50: 0.3 nM
[31]
  IC50: 0.3 nM
[32]
  IC50: 0.3 nM
[33]
  IC50: 0.3 nM
[34]
  IC50: 0.3 nM
[35]
  IC50: 0.3 nM

## O=C(/C=C\n1cnc(-c2cc(C(F)(F)F)cc(C(F)(F)F)c2)n1)NNc1cnccn1 [SELINEXOR]
[36]
  IC50: 34 nM
[37]
  inhibition: inactive
[9]
  IC50: 430 nM
[10]
  IC50 at 72 h: 730 nM

## Cc1ccc(C)c(N2CCN(c3ccc(C(=O)O)cc3NC(=O)c3ccc(Cl)cc3)CC2)c1
[38]
  inhibition: Active
[39]
  Ratio: 0.02
[40]
  inhibition: Active
[41]
  inhibition: inactive
[1]
  Kd: 12000 nM

## O=C(O)c1ccc(N2CCN(c3cc(C(F)(F)F)cc(C(F)(F)F)c3)CC2)c(NC(=O)c2ccc(Br)cc2)c1
[1]
  Kd: 1600 nM
[2]
  Activity: Active
[3]
  Activity: Active
[4]
  inhibition: Active
[5]
  inhibition: Active
[6]
  inhibition: Active
[7]
  inhibition: inactive
[8]
  solubility: < 0.14 µg/mL
[9]
  IC50: 10200 nM
[10]
  IC50 at 72 h: 30900 nM
[13]
  inhibition: Active
[14]
  inhibition at 40 µM: 100%
[15]
  Activity: Active
[16]
  Activity: Active
[17]
  Activity: Active
[18]
  Activity: Active
[19]
  Activity: Active
[20]
  Activity: Active
[21]
  Activity: Active
[22]
  Activity: Active
[23]
  Activity: Active
[24]
  Activity: Active
[25]
  Activity: Active
[26]
  Activity: Active
[27]
  Activity: Active
[28]
  Activity: Active
